The target in one data set is T1, QPCTL (Homo sapiens, UniProt Q9NXS2).
T1 construct: made in house
Nature of the data set: Assay A: biochemical QPCTL activity assay (MALDI-TOF MS, CD47 peptide substrate). Conditions: Table 3, prior art compounds, read-out: Inhibition of QPCTL: IC50. A digest of the protocol: (§1)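 Enzyme and compound pre-incubated 10 min at 24° C in 20 mM Tris pH 7.5 with TCEP, BSA, Tween20, then 40 min with CD47 peptide (10 μM for QPCTL, 20 μM for QPCT). Pyroglutamate product/internal standard ratio by MALDI-TOF MS, normalized to controls; four-parameter logistic fit.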

A further data set has as its target T2, QPCT (Homo sapiens, UniProt Q16769).
T2 construct: purchased Origine (OriGene) TP700028
Nature of the data set: Assay A: biochemical QPCT activity assay (MALDI-TOF MS, CD47 peptide substrate). Conditions: Table 3, prior art compounds, read-out: Inhibition of QPCT: IC50. A digest of the protocol: as §1

Data set [1] relates to SIRPα signalling induced by Raji cells. Nature of the data set: Assay B: SIRPα signalling assay using Raji cells. The class given is cell-based. Particulars: Homo sapiens, Table 5, prior art compounds, read-out: Inhibition of SIRPα signalling induced by Raji cells: IC50. A digest of the protocol:
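SIRPα signalling induced by Raji cells in a PathHunter reporter line, read as β-galactosidase complementation luminescence. Detection reagent 1 added for 15 min, then reagent 2 for 60 min in the dark, both at room temperature.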

Data set [2] in a line: Assay C: permeability in CACO-2 cells. The class given is in vitro ADME. Conditions: human, Caco-2, pH 7.2. The method in brief:
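Caco-2 monolayers were grown 10–25 days on porous filter inserts. Compound was applied to the apical or basolateral donor side for A-B or B-A transport (3 filters), and the receiver was sampled for up to 2 h. Quantitation was by HPLC-MS/MS or scintillation; efflux ratio = B-A/A-B permeability.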
In general terms: Caco-2 monolayers are a common model of the intestinal barrier.

The subject of a further data set is CYP3A4 mRNA. Description: Assay D: CYP induction screening assay in primary human hepatocytes. Format: in vitro ADME. Particulars: Table 10, prior art compounds, 48 h. The method in brief:
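Single-donor cryopreserved human hepatocytes on collagen with Matrigel overlay were exposed to test compound at […] (0.1% DMSO) for 48 h, medium renewed at 24 h. CYP3A4 mRNA quantified by QuantiGene Plex/Luminex, normalised to geometric mean of RPL32, EIF4E2, GUSB and expressed relative to solvent control.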

The test system of a further data set is murine hepatocytes. Nature of the data set: Assay E: stability in murine hepatocytes. Conditions: Table 13, prior art compounds, 1 μM, 5% species serum. Format: in vitro ADME, mouse. The method in brief: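 Cryopreserved mouse hepatocytes, typically 1 Mio cells/mL in medium with 5% species serum, were dosed at 1 μM compound (0.05% DMSO) at 37 °C and sampled over 0–6 h. Parent decline was measured by HPLC-MS/MS and CLint calculated from dose/AUC, then scaled by well-stirred liver model.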

In another data set the target is isolated QPCTL (Homo sapiens, UniProt Q9NXS2). Conditions: as disclosed in WO 2024/020517; read-out: Inhibitory activity on isolated QPCTL, IC50; cited from earlier work.
Chain of isolated QPCTL (Q9NXS2 whole entry): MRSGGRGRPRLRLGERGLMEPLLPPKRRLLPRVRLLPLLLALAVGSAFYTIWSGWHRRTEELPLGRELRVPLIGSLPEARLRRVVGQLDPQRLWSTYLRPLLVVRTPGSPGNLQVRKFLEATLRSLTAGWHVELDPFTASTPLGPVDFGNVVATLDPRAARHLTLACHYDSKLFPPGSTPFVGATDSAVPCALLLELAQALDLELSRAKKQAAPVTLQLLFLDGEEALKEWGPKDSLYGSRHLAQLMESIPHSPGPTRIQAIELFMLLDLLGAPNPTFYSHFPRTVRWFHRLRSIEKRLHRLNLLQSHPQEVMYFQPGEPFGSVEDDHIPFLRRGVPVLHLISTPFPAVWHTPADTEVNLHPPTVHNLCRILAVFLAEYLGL

Data on one compound can be found in patent US20250250251A1, “PIPERIDINYLPYRIDINYLCARBONITRILE DERIVATIVES AS INHIBITORS OF GLUTAMINYL-PEPTIDE CYCLOTRANSFERASE AND GLUTAMINYL-PEPTIDE CYCLOTRANSFERASE LIKE PROTEIN” (Boehringer Ingelheim International GmbH, priority 2024, published 2025).

Broadly, the IC50 is the point on the concentration scale where inhibition reaches its midpoint. As usually defined, the Papp A→B is how fast a substance crosses the layer from the apical side.

T2 sequence (Q16769 29-361): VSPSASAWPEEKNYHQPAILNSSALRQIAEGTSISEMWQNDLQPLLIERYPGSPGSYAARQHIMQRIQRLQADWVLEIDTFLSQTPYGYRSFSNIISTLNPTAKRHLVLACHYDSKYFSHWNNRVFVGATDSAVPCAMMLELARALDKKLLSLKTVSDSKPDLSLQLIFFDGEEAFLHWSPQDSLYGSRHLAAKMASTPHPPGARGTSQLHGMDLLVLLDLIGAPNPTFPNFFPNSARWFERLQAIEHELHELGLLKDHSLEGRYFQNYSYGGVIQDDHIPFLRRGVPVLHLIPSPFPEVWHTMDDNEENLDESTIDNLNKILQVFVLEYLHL
T1 sequence (Q9NXS2 whole entry, species assumed): as the sequence (Q9NXS2 whole entry) above

Turning to `Cn1cnnc1C1CCN(c2c(-c3ccnnc3)ccc(Cl)c2C#N)CC1` [Compound 33, reference compound], the IC50 on QPCTL was 1 nM; at QPCT, 2 nM; in data set [1], 132 nM; on isolated QPCTL it was under 100 nM. This compound also showed a Papp A→B in data set [2] of 0.2 ×10⁻⁶ cm/s. For the same compound, in data set [2] (read-out: Efflux Ratio), the efflux ratio worked out at 45.3. The “n-fold induction of CYP3A4 at 10 μM” value with CYP3A4 mRNA amounted to 1.7 n-fold. Further, in the data set on murine hepatocytes, the “Mouse Hepatocyte Stability QH” value is 45%.
